Measurements taken from PubChem BioAssay (NCI).
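Briefly, cells in 96-well plates were exposed to five compound concentrations for 48 h, and endpoints were estimated by linear interpolation. The concentration for 50% growth inhibition is given as GI50. At the TGI there is no net growth.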

Assays:
Test in all cases: NCI anticancer screen, dose series, 48 h
HCC-2998 colon = tested on: HCC-2998 colon
M14 melanoma = tested on: M14 melanoma
KM12 colon = tested on: KM12 colon
SNB-75 CNS = tested on: SNB-75 CNS
786-0 renal = tested on: 786-0 renal
SF-295 CNS = tested on: SF-295 CNS
BT-549 breast = tested on: BT-549 breast
HS 578T breast = tested on: HS 578T breast
ACHN renal = tested on: ACHN renal
NCI-H460 lung = tested on: NCI-H460 lung
NCI-H226 lung = tested on: NCI-H226 lung
MOLT-4 leukemia = tested on: MOLT-4 leukemia
OVCAR-3 ovarian = tested on: OVCAR-3 ovarian
COLO 205 colon = tested on: COLO 205 colon
HCT-15 colon = tested on: HCT-15 colon
A549 NSCLC = tested on: A549 NSCLC
EKVX NSCLC = tested on: EKVX NSCLC
DU-145 prostate = tested on: DU-145 prostate
CAKI-1 renal = tested on: CAKI-1 renal
CCRF-CEM leukemia = tested on: CCRF-CEM leukemia
K-562 leukemia = tested on: K-562 leukemia
UACC-62 melanoma = tested on: UACC-62 melanoma
U251 CNS = tested on: U251 CNS
SK-MEL-2 melanoma = tested on: SK-MEL-2 melanoma
SK-OV-3 ovarian = tested on: SK-OV-3 ovarian
MDA-MB-231 breast = tested on: MDA-MB-231 breast
SN12C renal = tested on: SN12C renal
SF-268 CNS = tested on: SF-268 CNS
T-47D breast = tested on: T-47D breast
HCT-116 colon = tested on: HCT-116 colon
MCF7 breast = tested on: MCF7 breast
HT29 colon = tested on: HT29 colon
TK-10 renal = tested on: TK-10 renal
OVCAR-4 ovarian = tested on: OVCAR-4 ovarian
NCI-H23 lung = tested on: NCI-H23 lung
UO-31 renal = tested on: UO-31 renal
MALME-3M melanoma = tested on: MALME-3M melanoma
SW-620 colon = tested on: SW-620 colon
SK-MEL-5 melanoma = tested on: SK-MEL-5 melanoma
SK-MEL-28 melanoma = tested on: SK-MEL-28 melanoma
SR leukemia = tested on: SR leukemia
RXF 393 renal = tested on: RXF 393 renal
IGROV1 ovarian = tested on: IGROV1 ovarian
NCI/ADR-RES ovarian = tested on: NCI/ADR-RES ovarian
A498 renal = tested on: A498 renal
LOX IMVI melanoma = tested on: LOX IMVI melanoma
OVCAR-8 ovarian = tested on: OVCAR-8 ovarian
RPMI-8226 leukemia = tested on: RPMI-8226 leukemia
HL-60(TB) leukemia = tested on: HL-60(TB) leukemia
NCI-H522 lung = tested on: NCI-H522 lung
HOP-92 NSCLC = tested on: HOP-92 NSCLC
SNB-19 CNS = tested on: SNB-19 CNS
OVCAR-5 ovarian = tested on: OVCAR-5 ovarian
PC-3 prostate = tested on: PC-3 prostate
SF-539 CNS = tested on: SF-539 CNS
HOP-62 NSCLC = tested on: HOP-62 NSCLC

Structure (SMILES): CCOC(=O)/C=C/C1=C(c2ccsc2)c2ccc(OC)cc2CC1
- GI50 (HCC-2998 colon): 4570 nM
- TGI (HCC-2998 colon): 26700 nM
- GI50 (M14 melanoma): 378 nM
- TGI (M14 melanoma): > 100000 nM
- GI50 (KM12 colon): 169 nM
- TGI (KM12 colon): 15400 nM
- GI50 (SNB-75 CNS): 263 nM
- TGI (SNB-75 CNS): > 100000 nM
- GI50 (786-0 renal): 511 nM
- TGI (786-0 renal): 30300 nM
- GI50 (SF-295 CNS): 349 nM
- TGI (SF-295 CNS): 20600 nM
- GI50 (BT-549 breast): 787 nM
- TGI (BT-549 breast): > 46900 nM
- GI50 (HS 578T breast): 430 nM
- TGI (HS 578T breast): > 38700 nM
- GI50 (ACHN renal): 701 nM
- TGI (ACHN renal): > 52700 nM
- GI50 (NCI-H460 lung): 2210 nM
- TGI (NCI-H460 lung): 15800 nM
- GI50 (NCI-H226 lung): 769 nM
- TGI (NCI-H226 lung): > 62800 nM
- GI50 (MOLT-4 leukemia): 512 nM
- TGI (MOLT-4 leukemia): 12900 nM
- GI50 (OVCAR-3 ovarian): 205 nM
- TGI (OVCAR-3 ovarian): 686 nM
- GI50 (COLO 205 colon): 213 nM
- TGI (COLO 205 colon): 1360 nM
- GI50 (HCT-15 colon): 222 nM
- TGI (HCT-15 colon): > 20200 nM
- GI50 (A549 NSCLC): 671 nM
- TGI (A549 NSCLC): > 100000 nM
- GI50 (EKVX NSCLC): 6000 nM
- TGI (EKVX NSCLC): > 100000 nM
- GI50 (DU-145 prostate): 473 nM
- TGI (DU-145 prostate): > 36500 nM
- GI50 (CAKI-1 renal): 387 nM
- TGI (CAKI-1 renal): > 100000 nM
- GI50 (CCRF-CEM leukemia): 328 nM
- GI50 (K-562 leukemia): 59.2 nM
- TGI (K-562 leukemia): 12500 nM
- GI50 (UACC-62 melanoma): 1790 nM
- TGI (UACC-62 melanoma): 26200 nM
- GI50 (U251 CNS): 405 nM
- TGI (U251 CNS): > 100000 nM
- GI50 (SK-MEL-2 melanoma): 3660 nM
- TGI (SK-MEL-2 melanoma): > 24700 nM
- GI50 (SK-OV-3 ovarian): 359 nM
- TGI (SK-OV-3 ovarian): > 85600 nM
- GI50 (MDA-MB-231 breast): 924 nM
- TGI (MDA-MB-231 breast): 19700 nM
- GI50 (SN12C renal): 837 nM
- TGI (SN12C renal): > 23900 nM
- GI50 (SF-268 CNS): 656 nM
- TGI (SF-268 CNS): 58100 nM
- GI50 (T-47D breast): 330 nM
- TGI (T-47D breast): > 100000 nM
- GI50 (HCT-116 colon): 376 nM
- TGI (HCT-116 colon): > 39400 nM
- GI50 (MCF7 breast): 364 nM
- TGI (MCF7 breast): 26400 nM
- GI50 (HT29 colon): 275 nM
- TGI (HT29 colon): > 41400 nM
- GI50 (TK-10 renal): 716 nM
- TGI (TK-10 renal): > 100000 nM
- GI50 (OVCAR-4 ovarian): 2330 nM
- TGI (OVCAR-4 ovarian): > 100000 nM
- GI50 (NCI-H23 lung): 525 nM
- TGI (NCI-H23 lung): > 100000 nM
- GI50 (UO-31 renal): 7600 nM
- TGI (UO-31 renal): > 100000 nM
- GI50 (MALME-3M melanoma): 205 nM
- TGI (MALME-3M melanoma): > 100000 nM
- GI50 (SW-620 colon): 349 nM
- TGI (SW-620 colon): > 100000 nM
- GI50 (SK-MEL-5 melanoma): 195 nM
- TGI (SK-MEL-5 melanoma): 11200 nM
- GI50 (SK-MEL-28 melanoma): 982 nM
- TGI (SK-MEL-28 melanoma): > 49800 nM
- GI50 (SR leukemia): 156 nM
- TGI (SR leukemia): 6370 nM
- GI50 (RXF 393 renal): 235 nM
- TGI (RXF 393 renal): 5020 nM
- GI50 (IGROV1 ovarian): 6260 nM
- TGI (IGROV1 ovarian): > 100000 nM
- GI50 (NCI/ADR-RES ovarian): 285 nM
- GI50 (A498 renal): 512 nM
- TGI (A498 renal): > 31300 nM
- GI50 (LOX IMVI melanoma): 610 nM
- TGI (LOX IMVI melanoma): > 50100 nM
- GI50 (OVCAR-8 ovarian): 661 nM
- TGI (OVCAR-8 ovarian): > 41900 nM
- GI50 (RPMI-8226 leukemia): 292 nM
- TGI (RPMI-8226 leukemia): 4150 nM
- GI50 (HL-60(TB) leukemia): 206 nM
- TGI (HL-60(TB) leukemia): 794 nM
- GI50 (NCI-H522 lung): 260 nM
- TGI (NCI-H522 lung): > 100000 nM
- GI50 (HOP-92 NSCLC): 2290 nM
- TGI (HOP-92 NSCLC): > 55400 nM
- GI50 (SNB-19 CNS): 357 nM
- TGI (SNB-19 CNS): > 100000 nM
- GI50 (OVCAR-5 ovarian): 1660 nM
- TGI (OVCAR-5 ovarian): > 100000 nM
- GI50 (PC-3 prostate): 202 nM
- GI50 (SF-539 CNS): 388 nM
- TGI (SF-539 CNS): 6130 nM
- GI50 (HOP-62 NSCLC): 599 nM
- TGI (HOP-62 NSCLC): > 100000 nM
